This note sets out measurements from EP0100983A1, “Steroid compounds with choleretic activity, a process for their preparation, and therapeutic compounds which contain them as active principle” (PROTER S.p.A., priority 1982, dated 1984).

In data set [1] the test system is male albino rats of Wistar stock. Nature of the data set: Choleretic activity in bile-duct (choledocus) cannulated rats, method of D'Armour and coll.: bile flow (test a) and bile dry residue (test b). Type of data set: in vivo. The following applies: rat. The source says:
By way of example, details are given of the activity of 3α,7β-dihydroxy-6/3-cholan-24-oyl acetic acid (A) and of its trimebutine salt (B) compared with ursodeoxycholic acid (C), using the method of D'Armour and coll. (J. Pharmacol. Exp. Theor. 133, 400 (1961)).
This method consists essentially of cannulating the choledocus of the treated animals and collecting the bile before and after treatment with the drugs.
24 male albino rats of Wistar stock were used having an average weight of 400 g and divided into 4 batches of 6 animals each.
In the method used, after the surgical cannulation, the bile was allowed to flow out for about 30-45 minutes in order to regulate the flow, after which the basic bile was collected for 60 minutes.
After this time, the drug was administered into the subpyloric duodenal tract at a dose of 0.5 mM/kg, and the bile was collected in suitable graduated test tubes, the samples of each animal being split into periods of exactly 60 minutes, for a time of 3 hours after treatment. The following were then determined for each animal: • a) the quantity of bile which had flown out after each hour, and • b) the dry residue obtained after drying each sample under vacuum.
The tested compounds were solubilised with stoichiometric quantities of M NaOH, to obtain solutions or suspensions at pH 10.
Physiological solution (S.F.) adjusted to pH 10 by M NaOH was used for the control group.
The data obtained in the described experiments by administering equimolar doses of the products A and B and of the comparison drug C are shown on the accompanying graphs.

The subject of data set [2] is Wistar rats. Nature of the data set: Acute toxicity by oral administration in the rat. Type of data set: in vivo. The protocol:
Acute toxicity was also tested by oral administration of the acid A and the salt B in the rat in comparison with ursodeoxycholic acid. 60 Wistar rats of the two sexes were used having an average weight of 200 g, divided randomly into three batches of 10 males and 10 females and treated orally by gastric probe with the following products: • batch 1: ursodeoxycholic acid (C) - 15% suspension in a 10% solution of gum arabic; […] equivalent to 3 g/kg of product; • batch 2: product (A) - 15% suspension in a 10% solution of gum arabic: 20 ml/kg equivalent to 3 g/kg of product; • batch 3: product (B) - 15% suspension in a 10% solution of gum arabic: 20 ml/kg equivalent to 3 g/kg of product.
The animals, kept under observation for two weeks, registered no case of death or other toxicity symptom.

Data set [3] concerns guinea pig ileum. The data set is described as follows: In vitro antispastic activity on the guinea pig ileum against acetylcholine bromide. The following applies: relative to trimebutine hydrochloride. The source says: Compound B was also used in "in vibro" antispastic activity tests on the guinea pig ileum, using acetylcholine bromide as […] in canparison with trimebutine hydrochloride.

Structures are written as SMILES. Where a name gives a salt, the structure may show the parent alone.

Consider `CC(CCC(=O)OCC(=O)O)C1CCC2C3C(O)CC4CC(O)CCC4(C)C3CCC12C` (stereo not drawn) [A, 3α,7β-dihydroxy-6β-cholan-24-oyl acetic acid], for which the “maximum intensity action on the bile flow” value in data set [1] (0.5 mM/kg into the subpyloric duodenal tract, compared with ursodeoxycholic acid (C) at equal dose, Figure 1) is listed as “practically equivalent to that of the comparison drug”. For the same compound, the “activity on the bile flow after 1 hour” value in data set [1] (0.5 mM/kg intraduodenal, 1 hour after treatment, relative to comparison drug C, Figure 1) is reported as “slightly less”. In addition, the “activity on the bile flow after 2 hours” value in data set [1] (0.5 mM/kg intraduodenal, 2 hours after treatment, relative to comparison drug C, Figure 1) is “greater”. In data set [1] (0.5 mM/kg intraduodenal, compared with ursodeoxycholic acid, Figure 2), the “dry residual content of the bile (indicative of the bile salt content), maximum values” is “practically equal to that obtained after treatment with ursodeoxycholic acid”. Besides, the “tolerability when administered orally in a single dose” value in data set [2] (single oral dose 3 g/kg) is “very well tolerated”.
Consider `CC(CCC(=O)OCC(=O)O)C1CCC2C3C(O)CC4CC(O)CCC4(C)C3CCC12C` (stereo not drawn) [Compound B, 2-dimethylamino-2-phenylbutyl 3,4,5-trimethoxybenzoate salt of 3α ,7β-dihydroxy-6β-cholan-24-oyl acetic acid], for which the “activity on the bile flow after 3 hours” value in data set [1] (0.5 mM/kg intraduodenal, 3 hours after treatment, Figure 1) is “high”. Also, the antispastic activity entry in data set [3] is reported as “approximately double that of trimebutine”. Besides, the “toxicity (concluding statement)” value in data set [2] (oral) is listed as “absolute absence of toxicity”.
In the case of `C[C@H](CCC(=O)O)[C@H]1CC[C@H]2[C@@H]3[C@@H](O)C[C@@H]4C[C@H](O)CC[C@]4(C)[C@H]3CC[C@]12C` [ursodeoxycholic acid, 3α ,7β-dihydroxy-6β-cholan-24-oic acid, reference compound], in data set [1] (0.5 mM/kg intraduodenal, bile dry residue test (Figure 2)), the “duration of the action” value came to 1 h.
